Where two headings read alike, the source gives them in different places.
How the values were obtained:
Assay type in all cases: cell-based, human
[1] = test system: AsPC-1 cells (KRAS G12D mutation); experiment: Cell proliferation inhibition assay, 3D, CellTiter-Glo 3D, AsPC-1; conditions: AsPC-1 3D sphere model, 5 days incubation
Method in brief: (§1)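 Spheroids (800 AsPC-1 or 400 AGS cells/well; RPMI-1640 or F-12K with 10% FBS) formed overnight, then were dosed on day 2 with a 3.16-fold series at 0.1% DMSO. After 5 days, viability was read by CellTiter-Glo 3D luminescence, and IC50 came from four-parameter fits of inhibition versus DMSO control and medium blank.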

AGS cells (KRAS G12D) = experiment: Cell proliferation inhibition assay, 3D, CellTiter-Glo 3D, AGS; conditions: AGS 3D sphere model, 5 days incubation
Method in brief: as §1

[2] = test system: p-ERK in AGS cells (KRAS G12D mutation); experiment: Cell p-ERK assay (HTRF, Advance ERK phospho-T202/Y204 kit); conditions: AGS cells, 3 hours incubation with compound, HTRF, read-out: AGS p-ERK IC50
Method in brief: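 Phospho-ERK (T202/Y204) measured by HTRF in lysates of human gastric AGS cells carrying KRAS G12D, after 3 h compound exposure at 0.1% DMSO over a 3.16-fold series. Percent inhibition relative to DMSO control and lysis-only blank; four-parameter curve fitting gave IC50.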

Compound: C#Cc1cccc2cccc(-c3nc4c5c(nc(OCC67CC(=C)CN6C[C@H](F)C7)nc5c3F)N3C[C@H]5CC[C@H](N5)[C@H]3[C@H](C)O4)c12 (stereo partly drawn) [Example Z678, (5S,5aS,6S,9R)-2-(8-ethynylnaphthalen-1-yl)-1-fluoro-12-(((2R)-2-fluoro-6-methylenetetrahydro-1H-pyrrolizin-7a (5H)-yl)methoxy)-5-methyl-5a,6,7,8,9,10-hexahydro-5H-4-oxa-3,10a, 11, 13,14-pentaaza-6,9-methanonaphtho[1,8-ab]heptalene]
- IC50 ([1]; Homo sapiens, ASPC1, 120 h): 73.5 nM
- IC50 (AGS cells (KRAS G12D); Homo sapiens, 120 h): 100 nM
- IC50 ([2]; Homo sapiens): 12.4 nM

Compound: C#Cc1c(F)ccc2cccc(-c3nc4c5c(nc(OCC67CC(=C)CN6C[C@H](F)C7)nc5c3F)N3CC5CCC(N5)C3C(CF)O4)c12 (stereo partly drawn) [Example Z679, 2-(8-Ethynyl-7-Fluoronaphthalen-1-Yl)-1-Fluoro-12-(((2R)-2-Fluoro-6-Methylenetetrahydro-1H-Pyrrolizin-7a (5H)-Yl)Methoxy)-5-(Fluoromethyl)-5a,6,7,8,9,10-Hexahydro-5H-4-Oxa-3.10a,11,13,14-Pentaaza-6,9-Methanonaphtho[1,8-Ab]Heptalene]
- IC50 [1]: 352 nM
- IC50 (AGS cells (KRAS G12D)): 393 nM
- IC50 [2]: 117 nM

Compound: C#Cc1c(F)ccc2cccc(-c3nc4c5c(nc(OCC67CC(OC)CN6CCC7=C)nc5c3F)N3C[C@H]5CC[C@H](N5)[C@H]3[C@H](C)O4)c12 (stereo partly drawn) [Example Z681, (5S,5aS,6S,9R)-2-(8-Ethynyl-7-Fluoronaphthalen-1-Yl)˜1-Fluoro-12-((6-Methoxy-1-Methylenetetrahydro-1H-Pyrrolizin-7a (5H)-Yl)Methoxy)-5-Methyl-5a,6,7,8,9,10-Hexahydro-5H-4-Oxa-3,10a,11,13,14-Pentaaza-6,9-Methanonaphtho[1,8-Ab]Heptalene]
- IC50 [1]: 37.9 nM
- IC50 (AGS cells (KRAS G12D)): 13 nM
- IC50 [2]: 5.73 nM

Compound: C=C1CN2C[C@H](F)CC2(COc2nc3c4c(nc(-c5cccc(Cl)c5C(F)(F)F)c(F)c4n2)O[C@@H](C)[C@@H]2[C@@H]4CC[C@H](CN32)N4)C1 (stereo partly drawn) [Example Z682, (5S,5aS,6S,9R)-2-(3-chloro-2-(trifluoromethyl)phenyl)-1-fluoro-12-(((2R)-2-fluoro-6-methylenetetrahydro-1H-pyrrolizin-7a (5H)-yl)methoxy)-5-methyl-5a,6,7,8,9,10-hexahydro-5H-4-oxa-3,10a, 11,13,14-pentaaza-6,9-methanonaphtho[1,8-ab]heptalene]
- IC50 ([1]; Homo sapiens, ASPC1, 120 h): 237 nM
- IC50 (AGS cells (KRAS G12D); Homo sapiens, 120 h): 146 nM
- IC50 ([2]; Homo sapiens): 82 nM

Compound: C#Cc1c(F)ccc2cccc(-c3nc4c5c(nc(OCC67CC(=C)CN6CCC7CO)nc5c3F)N3C[C@H]5CC[C@H](N5)[C@H]3[C@H](C)O4)c12 (stereo partly drawn) [Example Z683, (7a-((((5S,5aS,6S,9R)-2-(8-ethynyl-7-fluoronaphthalen-1-yl)-1-fluoro-5-methyl-5a,6,7,8,9,10-hexahydro-5H-4-oxa-3,10a,11,13,14-pentaaza-6,9-methanonaphtho[1,8-ab]heptalen-12-yl)oxy)methyl)-6-methylenehexahydro-1H-pyrrolizin-1-yl)methanol]
- IC50 ([1]; Homo sapiens, ASPC1, 120 h): 79 nM
- IC50 (AGS cells (KRAS G12D); Homo sapiens, 120 h): 22.7 nM
- IC50 ([2]; Homo sapiens): 5.84 nM

Compound: C#Cc1cccc2cncc(-c3nc4c5c(nc(OCC67CC(=C)CN6C[C@H](F)C7)nc5c3F)N3C[C@H]5CC[C@H](N5)[C@H]3[C@H](C)O4)c12 (stereo partly drawn) [Example Z684, (5S,5aS,6S,9R)-2-(5-ethynylisoquinolin-4-yl)-1-fluoro-12-(((2R)-2-fluoro-6-methylenetetrahydro-1H-pyrrolizin-7a (5H)-yl)methoxy)-5-methyl-5a,6,7,8,9,10-hexahydro-5H-4-oxa-3,10a, 11,13,14-pentaaza-6,9-methanonaphtho[1,8-ab]heptalene]
- IC50 ([1]; Homo sapiens, ASPC1, 120 h): 326 nM
- IC50 (AGS cells (KRAS G12D); Homo sapiens, 120 h): 341 nM
- IC50 ([2]; Homo sapiens): 57.5 nM

Compound: C#Cc1cccc2cc(N)nc(-c3nc4c5c(nc(OCC67CC(=C)CN6C[C@H](F)C7)nc5c3F)N3C[C@H]5CC[C@H](N5)[C@H]3[C@H](C)O4)c12 (stereo partly drawn) [Example Z685, 8-Ethynyl-1-((5S,5aS,68,9R)-1-Fluoro-12-(((2R)-2-Fluoro-6-Methylenetetrahydro-1H-Pyrrolizin-7a (5H)-Yl)Methoxy)-5-Methyl-5a,6,7,8,9,10-Hexahydro-5H-4-Oxa-3,10a,11,13,14-Pentaaza-6,9-Methanonaphtho[1,8-Ab]Heptalen-2-Yl) Isoquinolin-3-Amine]
- IC50 ([1]; Homo sapiens, ASPC1, 120 h): 258 nM
- IC50 (AGS cells (KRAS G12D); Homo sapiens, 120 h): 145 nM
- IC50 ([2]; Homo sapiens): 30.3 nM

Compound: C#Cc1c(F)ccc2cccc(-c3nc4c5c(nc(OCC(=C)CN6CCOCC6)nc5c3F)N3C[C@H]5CC[C@H](N5)[C@H]3[C@H](C)O4)c12 [Example Z687, (5S,5aS,6S,9R)-2-(8-ethynyl-7-fluoronaphthalen-1-yl)-1-fluoro-5-methyl-12-((2-(morpholinomethyl)allyl)oxy)-5a,6,7,8,9,10-hexahydro-5H-4-oxa-3,10a,11,13,14-pentaaza-6,9-methanonaphtho[1,8-ab]heptalene]
- IC50 ([1]; Homo sapiens, ASPC1, 120 h): 513 nM
- IC50 (AGS cells (KRAS G12D); Homo sapiens, 120 h): 392 nM
- IC50 ([2]; Homo sapiens): 193 nM

Compound: C#Cc1c(F)ccc2cccc(-c3nc4c5c(nc(OCC67C[C@@H](OC)CN6CCC7=C)nc5c3F)N3C[C@H]5CC[C@H](N5)[C@H]3[C@H](C)O4)c12 (stereo partly drawn) [Example Z688, (5S,5aS,6S,9R)-2-(8-Ethynyl-7-Fluoronaphthalen-1-Yl)-1-Fluoro-12-(((6R)-6-Methoxy-1-Methylenetetrahydro-1H-Pyrrolizin-7a (5H)-Yl)Methoxy)-5-Methyl-5a,6,7,8,9,10-Hexahydro-5H-4-Oxa-3,10a,11,13,14-Pentaaza-6,9-Methanonaphtho[1,8-Ab]Heptalene]
- IC50 ([1]; Homo sapiens, ASPC1, 120 h): 39.2 nM
- IC50 (AGS cells (KRAS G12D); Homo sapiens, 120 h): 20 nM
- IC50 ([2]; Homo sapiens): 8.77 nM

Compound: C#Cc1c(F)ccc2cccc(-c3nc4c5c(nc(OCC67CC(=C)CN6C[C@H](OC)C7)nc5c3F)N3C[C@H]5CC[C@H](N5)[C@H]3[C@H](C)O4)c12 (stereo partly drawn) [Example Z691, (5S,5aS,6S,9R)-2-(8-Ethynyl-7-Fluoronaphthalen-1-Yl)-1-Fluoro-12-(((2R)-2-Methoxy-6-Methylenetetrahydro-1H-Pyrrolizin-7a (5H)-Yl)Methoxy)-5-Methyl-5a,6,7,8,9,10-Hexahydro-5H-4-Oxa-3,10a,11,13,14-Pentaaza-6,9-Methanonaphtho[1,8-Ab]Heptalene]
- IC50 ([1]; Homo sapiens, ASPC1, 120 h): 87.9 nM
- IC50 (AGS cells (KRAS G12D); Homo sapiens, 120 h): 54.6 nM
- IC50 ([2]; Homo sapiens): 14.2 nM

Compound: C#Cc1c(F)ccc2cccc(-c3nc4c5c(nc(OCC67CC(=C)CN6C[C@@H](OC)C7)nc5c3F)N3C[C@H]5CC[C@H](N5)[C@H]3[C@H](C)O4)c12 (stereo partly drawn) [Example Z692, (5S,5aS,6S,9R)-2-(8-ethynyl-7-fluoronaphthalen-1-yl)-1-fluoro-12-(((2S)-2-methoxy-6-methylenetetrahydro-1H-pyrrolizin-7a (5H)-yl)methoxy)-5-methyl-5a,6,7,8,9,10-hexahydro-5H-4-oxa-3,10a,11,13,14-pentaaza-6,9-methanonaphtho[1,8-ab]heptalene]
- IC50 ([1]; Homo sapiens, ASPC1, 120 h): 290 nM
- IC50 (AGS cells (KRAS G12D); Homo sapiens, 120 h): 378 nM
- IC50 ([2]; Homo sapiens): 188 nM

Compound: C#Cc1c(F)ccc2cccc(-c3nc4c5c(nc(OCC6(CN7CCOCC7)CC6)nc5c3F)N3C[C@H]5CC[C@H](N5)[C@H]3[C@H](C)O4)c12 [Example Z693, (58,5aS,6S,9R)-2-(8-ethynyl-7-fluoronaphthalen-1-yl)-1-fluoro-5-methyl-12-((1-(morpholinomethyl)cyclopropyl)methoxy)-5a,6,7,8,9,10-hexahydro-5H-4-oxa-3,10a, 11, 13,14-pentaaza-6,9-methanonaphtho[1,8-ab]heptalene]
- IC50 ([1]; Homo sapiens, ASPC1, 120 h): 31.1 nM
- IC50 (AGS cells (KRAS G12D); Homo sapiens, 120 h): 27.3 nM
- IC50 ([2]; Homo sapiens): 9.23 nM

Compound: C#Cc1c(F)ccc2cccc(-c3nc4c5c(nc(OCC6(CN7CCC(=C)C7)CC6)nc5c3F)N3C[C@H]5CC[C@H](N5)[C@H]3[C@H](C)O4)c12 [Example Z698, (5S,5aS,6S,9R)-2-(8-Ethynyl-7-Fluoronaphthalen-1-Yl)-1-Fluoro-5-Methyl-12-((1-((3-Methylenepyrrolidin-1-Yl)Methyl)Cyclopropyl)Methoxy)-5a,6,7,8,9,10-Hexahydro-5H-4-Oxa-3,10a,11,13,14-Pentaaza-6,9-Methanonaphtho[1,8-Ab]Heptalene]
- IC50 ([1]; Homo sapiens, ASPC1, 120 h): 49.3 nM
- IC50 (AGS cells (KRAS G12D); Homo sapiens, 120 h): 18.8 nM
- IC50 ([2]; Homo sapiens): 21.7 nM

Compound: C#Cc1cccc2cc(N)cc(-c3nc4c5c(nc(OCC67CC(=C)CN6C[C@H](F)C7)nc5c3F)N3C[C@H]5CC[C@H](N5)[C@H]3[C@H](C)O4)c12 (stereo partly drawn) [Example Z699, 5-ethynyl-4-((5S,5aS,6S,9R)-1-fluoro-12-(((2R)-2-fluoro-6-methylenetetrahydro-1H-pyrrolizin-7a (5H)-yl)methoxy)-5-methyl-5a,6,7,8,9,10-hexahydro-5H-4-oxa-3,10a, 11,13,14-pentaaza-6,9-methanonaphtho[1,8-ab]heptalen-2-yl) naphthalen-2-amine]
- IC50 ([1]; Homo sapiens, ASPC1, 120 h): 2.37 nM
- IC50 (AGS cells (KRAS G12D); Homo sapiens, 120 h): 1.98 nM
- IC50 ([2]; Homo sapiens): 0.44 nM

Compound: C#Cc1cccc2cc(N)cc(-c3nc4c5c(nc(OCC6(CN7CCOCC7)CC6)nc5c3F)N3C[C@H]5CC[C@H](N5)[C@H]3[C@H](C)O4)c12 [Example Z700, 5-Ethynyl-4-((5S,5aS,6S,9R)-1-Fluoro-5-Methyl-12-((1-(Morpholinomethyl)Cyclopropyl)Methoxy)-5a,6,7,8,9,10-Hexahydro-5H-4-Oxa-3,10a, 11,13,14-Pentaaza-6,9-Methanonaphtho[1,8-Ab]Heptalen-2-Yl) Naphthalen-2-Amine]
- IC50 ([1]; Homo sapiens, ASPC1, 120 h): 2.14 nM
- IC50 (AGS cells (KRAS G12D); Homo sapiens, 120 h): 1.91 nM
- IC50 ([2]; Homo sapiens): 0.39 nM

From patent US20250186456A1, “PYRIMIDINE-FUSED CYCLIC COMPOUND AND PREPARATION METHOD AND USE THEREOF” (Genfleet Therapeutics (Shanghai) Inc., priority 2021, published 2025)
